Assay results: patent publication US10413552B2, “Method of treating medulloblastoma” (THE HOSPITAL FOR SICK CHILDREN, priority 2015, dated 2019)

Experiments:
[1] = tested on: D458 cerebellar xenografts; test: D458 intracranial medulloblastoma xenograft; assay type: in vivo, athymic nude mice; settings: for medulloblastoma growth (bioluminescence imaging, H&E): D458-luciferase xenograft, vs DMSO-treated controls; for medulloblastoma growth (bioluminescence imaging, H&E) / survival: s.c. for 2 weeks; for survival / survival difference, log-rank test p: D458 xenograft; for survival: Kaplan-Meier; for survival difference, log-rank test p: vs vehicle control
Experimental: (§1) Medulloblastoma intracranial xenografts were established in 5-6 week old athymic nude mice (Charles River Laboratories). Medulloblastoma cells (250,000 D425 and D458 cells) were implanted in the right cerebellum of mice. Six days after cell inoculation, animals were randomized into treatment cohorts, which included subcutaneous injections with vehicle control (10% DMSO), PL (50 mg/kg, daily for 2 weeks), ALP (30 mg/kg, daily for 2 weeks), RTL (20 mg/kg, every other day for 2 weeks) or FZ (50 mg/Kg, daily for 2 weeks).
In animals bearing D458-GFP/Luciferase xenografts, bioluminescence imaging was performed at 6 days after intracranial injection. Mice with a detectable signal were included in the study and tumor growth was monitored at one-week intervals using the IVIS Spectrum Optical In-vivo Imaging System (Caliper Life Sciences).
(§2) Animals with progressive neurological signs or weight loss greater than 20% were euthanized and the brains harvested and fixed in 10% formalin.
(§3) The Kaplan-Meier estimate and a log-rank test were used to generate survival curves. Experiments were performed in triplicate and results were expressed as mean±SEM. Statistical analysis was performed using GraphPad Prism 5 Software.
The efficacy of PL, ALP, RTL and FZ in established medulloblastoma xenografts representative of Group 3 medulloblastomas was then determined. D458 cells expressing luciferase were implanted in the right cerebellum of nude mice and bioluminescence imaging was performed at 6 days post inoculation. Animals with a detectable signal were treated by subcutaneous injection with PL (50 mg/kg, daily for 2 weeks), ALP (30 mg/kg, daily for 2 weeks), RTL (20 mg/kg, every other day for 2 weeks), FZ (50 mg/Kg, daily for 2 weeks) or vehicle control (10% DMSO).

[2] = tested on: hf5281 fetal normal human brain cells; test: MTS cell proliferation assay in fetal normal human brain cells; assay type: cell-based; settings: hf5281, up to the highest concentration tested of 10 μM
Experimental: (§4) FIG. 1 illustrates the cytotoxic effect of piperlongumine, alsterpaullone, rottlerin and flunarizine in Group 3 medulloblastoma cell lines. Established medulloblastoma cell lines (D425 and D458) and a fetal neural stem cell line (hf5281) were treated with various concentrations of (a) piperlongumine, (b) alsterpaullone, (c) rottlerin and (d) flunarizine for 48 hours. Cell viability was measured by MTS assay. Data represent mean of triplicates±SEM.
(§5) D425 and D458 cells were grown as suspension cultures and seeded in 96-well microplates at 10,000 cells per well. Fetal normal human brain cells (hf5281) were grown as an adherent culture and seeded in 96-well microplates at 4,000 and 5,000 cells per well. Cells were treated for 48 h with different concentrations of Piperlongumine (PL; INDOFINE Chemical Company), alsterpaullone (ALP; A, G. Scientific), rottlerin (RTL; A. G. Scientific) and flunarizine (FZ; Sigma) or DMSO (control). Cell viability was determined by MTS proliferation assay (3-(4,5-dimethylthiazol-2-yl)-5-(3-carboxymethoxyphenyl)-2-(4-sulfophenyl)-2H-tetrazolium) and the absorbance was measured at 490 nm (CellTiter 96 Aqueous One Solution Reagent; Promega). Three independent experiments were performed with 16 repeats per treatment condition.

[3] = tested on: D425 cerebellar xenografts; test: D425 intracranial medulloblastoma xenograft; assay type: in vivo, athymic nude mice; settings: for survival: Kaplan-Meier; for medulloblastoma growth (H&E): vs control group
Experimental: as §1, §2, §3

[4] = tested on: D425 and D458 medulloblastoma cells; test: Western blot, induction of apoptosis; assay type: cell-based; settings: 48 h treatment
Experimental: (§6) Cell lysates were prepared by adding RIPA buffer (Sigma) containing protease inhibitors (F. Hoffman-La Roche AG), 0.2 M sodium orthovanadate, 0.2 M sodium pyrophosphate and 0.2 M sodium fluoride. The Pierce BCA Protein Assay Kit (Thermo Scientific) was used to determine protein concentration. […] The following antibodies were used: PARP (1:1,000; Cell Signaling), AKT (1:1,000; Cell Signaling), phospho-AKT (1:2,000; Ser473, Cell Signaling), α-tubulin (1:1,000; Cell Signaling), anti-mouse IgG conjugated to horseradish peroxidase (1:5,000; Amersham Biosciences) and anti-rabbit IgG conjugated to horseradish peroxidase (1:5,000; Cell Signaling).
(§7) To determine the mechanisms by which PL and ALP exert their antitumor effect, D425 and D458 medulloblastoma cells were treated with both drugs for 48 h.

[5] = tested on: D425 and D458 medulloblastoma cells; test: Gene expression profiling and Gene Set Enrichment Analysis (GSEA) after treatment; assay type: cell-based, human
Experimental: D425 and D458 medulloblastoma cells were treated with 5 μM of PL, 5 μM of ALP or DMSO (control) for 48 h. RNA isolation was performed using the RNeasy Mini Kit (Qiagen) and gene expression data were generated using the Human PrimeView Arrays. Gene Set Enrichment Analysis (GSEA) was performed using gene sets from the National Cancer Institute (NCI), Gene Ontology (GO), Kyoto Encyclopedia of Genes and Genomes (KEGG), Protein Families (PFAM) and Biocarta pathway databases. Significant gene sets were identified (FDR<0.05; p<0.01) and visualized in Cytoscape and Enrichment Map software.
To identify downstream transcriptional events induced by ALP, genomic profiling of Group 3 medulloblastoma cell lines (D425 and D458) was conducted after treatment for 48 hours. […] Gene Set Enrichment Analysis (GSEA) was performed with gene sets compiled from the National Cancer Institute (NCI), Gene Ontology (GO), Kyoto Encyclopedia of Genes and Genomes (KEGG), Protein Families (PFAM) and Biocarta pathway databases. To visualize significant gene sets (FDR<0.05; p<0.01) as interaction networks, Cytoscape and Enrichment Map were used.

[6] = tested on: AKT pathway; test: Western blot, AKT pathway inhibition; assay type: cell-based; settings: 48 h treatment, D458 and D425 cells
Experimental: as §6, §7

[7] = tested on: D425 and D458 medulloblastoma cell lines; test: MTS cell proliferation assay in Group 3 medulloblastoma cell lines; assay type: cell-based; settings: 48 hours treatment
Experimental: as §4, §5

[8] = D425 and D458, 5 μM, 48 h vs DMSO, rank 1
[9] = D425 and D458, 5 μM, 48 h vs DMSO, rank 2
[10] = D425 and D458, 5 μM, 48 h vs DMSO, rank 3
[11] = D425 and D458, 5 μM, 48 h vs DMSO, rank 4
[12] = D425 and D458, 5 μM, 48 h vs DMSO, rank 5
[13] = D425 and D458, 5 μM, 48 h vs DMSO, rank 6
[14] = D425 and D458, 5 μM, 48 h vs DMSO, rank 7
[15] = D425 and D458, 5 μM, 48 h vs DMSO, rank 8
[16] = D425 and D458, 5 μM, 48 h vs DMSO, rank 9
[17] = D425 and D458, 5 μM, 48 h vs DMSO, rank 10

For O=C1Cc2c([nH]c3ccc([N+](=O)[O-])cc23)-c2ccccc2N1 [alsterpaullone, 9-nitro-7,12-dihydroindolo-[3,2-d][1]benzazepin-6(5)-one], the “medulloblastoma growth (bioluminescence imaging, H&E)” value [1] was “Marked reduction in medulloblastoma growth”, the survival [1] was “significant increase in survival” and the “survival difference, log-rank test p” value [1] was 0.0043. For the same compound, the “reduction in cell proliferation” value [2] was “little reduction in cell proliferation”, the survival [3] was “significantly increase survival” and the “medulloblastoma growth (H&E)” value [3] was “reduce medulloblastoma growth”. For the same compound, the “apoptosis (Western blot)” value [4] was “induced apoptosis”, the “GSEA enriched pathway Cell Cycle Mitotic: Regulation” value [5, 8] was “Down-Regulated” and the “GSEA enriched pathway Systemic Lupus Erythematosus: Regulation” value [5, 8] was “Up-Regulated”. The “GSEA enriched pathway Mitotic M M G1 Phases: Regulation” value [5, 9] was “Down-Regulated”, the “GSEA enriched pathway RNA Pol 1 Promoter Opening: Regulation” value [5, 9] was “Up-Regulated” and the “GSEA enriched pathway Amyloids: Regulation” value [5, 10] was “Up-Regulated”. The “GSEA enriched pathway Mitotic Prometaphase: Regulation” value [5, 10] was “Down-Regulated”, the “GSEA enriched pathway DNA Replication: Regulation” value [5, 11] was “Down-Regulated” and the “GSEA enriched pathway Packaging of Telomere Ends: Regulation” value [5, 11] was “Up-Regulated”. The “GSEA enriched pathway G2 M Checkpoints: Regulation” value [5, 12] was “Down-Regulated”, the “GSEA enriched pathway Olfactory Signaling Pathway: Regulation” value [5, 12] was “Up-Regulated” and the “GSEA enriched pathway Autoimmune Thyroid Disease: Regulation” value [5, 13] was “Up-Regulated”. The “GSEA enriched pathway Metabolism of Non Coding RNA: Regulation” value [5, 13] was “Down-Regulated”, the “GSEA enriched pathway Activation of the Pre Replicative Complex: Regulation” value [5, 14] was “Down-Regulated” and the “GSEA enriched pathway Asthma: Regulation” value [5, 14] was “Up-Regulated”. The “GSEA enriched pathway Cell Cycle: Regulation” value [5, 15] was “Down-Regulated”, the “GSEA enriched pathway Class A1 Rhodopsin Like Receptors: Regulation” value [5, 15] was “Up-Regulated” and the “GSEA enriched pathway Activation of ATR in Response to Replication Stress: Regulation” value [5, 16] was “Down-Regulated”. The “GSEA enriched pathway Immunoregulatory Interactions Between a lymphoid and a non lymphoid Cell: Regulation” value [5, 16] was “Up-Regulated”, the “GSEA enriched pathway Cell Cycle Checkpoints: Regulation” value [5, 17] was “Down-Regulated” and the “GSEA enriched pathway RNA Pol 1 Transcription: Regulation” value [5, 17] was “Up-Regulated”. For the same compound, the “gene expression change vs DMSO-treated cells” value ([5]; D425 and D458, 48 hours, MYC, CDK7, RB1, CDK6, CCNB1, CDK5RAP2, CDK1, CDKN2C) was “down-regulation of genes involved in cell cycle”, the “AKT pathway activation (Western blot)” value [6] was “potently inhibited AKT pathway activation at lower concentrations than PL” and the “concentration at which cell proliferation was reduced” value [7] was 1 µM.

With COc1cc(/C=C/C(=O)N2CCC=CC2=O)cc(OC)c1OC [piperlongumine] the “medulloblastoma growth (bioluminescence imaging, H&E)” value [1] was “Marked reduction in medulloblastoma growth”, the survival [1] was “significant increase in survival” and the “survival difference, log-rank test p” value [1] was 0.0011. The “reduction in cell proliferation” value [2] was “little reduction in cell proliferation”, the survival [3] was “significantly increase survival” and the “medulloblastoma growth (H&E)” value [3] was “reduce medulloblastoma growth”. For the same compound, the “apoptosis (Western blot)” value [4] was “induction of apoptosis”, the “AKT pathway activation (Western blot)” value [6] was “AKT pathway inhibition” and the “concentration at which cell proliferation was reduced” value [7] was 5 µM.

With Fc1ccc(C(c2ccc(F)cc2)N2CCN(C/C=C/c3ccccc3)CC2)cc1 [flunarizine] the survival [1] was “not able to prolong survival”.

For CC(=O)c1c(O)c(C)c(O)c(Cc2c(O)c3c(c(C(=O)/C=C/c4ccccc4)c2O)OC(C)(C)C=C3)c1O [rottlerin], the “medulloblastoma growth (bioluminescence imaging, H&E)” value [1] was “Marked reduction in medulloblastoma growth”, the survival [1] was “significant increase in survival” and the “survival difference, log-rank test p” value [1] was 0.0262. The “reduction in cell proliferation” value [2] was “little reduction in cell proliferation” and the “concentration at which cell proliferation was reduced” value [7] was 5 µM.
